Here are results for 11 compounds from publication PMC3634413, “Synthesis of Thieno[2,3-b]thiophene Containing Bis-Heterocycles-Novel Pharmacophores” (International Journal of Molecular Sciences, 2013).

Read-outs that look alike come from different tables or passages of the source.

One data set has as its system PC-3 cell line. Description: Anticancer (cytotoxic) activity, MTT colorimetric assay. Particulars: compounds 1–30 μM, n = 3, read-out: IC50 ± SEM, Anticancer Activity (PC-3 Cell line). The data set is classed as cell-based. The procedure:
Cytotoxic activity of compounds was evaluated in 96-well flat-bottomed microplates by using the standard MTT (3-[4,5-dimethylthiazole-2-yl]-2,5-diphenyl-tetrazolium bromide, MP) colorimetric assay. For this purpose, PC3 cells (Prostrate Cancer) were cultured in Dulbecco’s Modified Eagle Medium, supplemented with 10% of fetal bovine serum (FBS, PAA), 100 IU/mL of penicillin and 100 μg/mL of streptomycin in 75 cm^2 flasks, and kept in 5% CO2 incubator at 37 °C. Exponentially growing cells were harvested, counted with a haemocytometer, and diluted with a particular medium with 5% FBS. Cell culture with the concentration of 1 × 10^5 cells/mL was prepared and introduced (100 μL/well) into 96-well plates. After overnight incubation, medium was removed and 200 μL of fresh medium was added with different concentrations of compounds (1–30 μM). Stock solution, 20 mM of compounds were prepared in 100% DMSO, and the final concentration of DMSO at 30 μM is 0.15%. After 48 h, 200 μL MTT (0.5 mg/mL) was added to each well and incubated further for four hours. Subsequently, 100 μL of DMSO was added to each well. The extent of MTT reduction to formazan within cells was calculated by measuring the absorbance at 570 nm, using a microplate reader (SpectraMax plus, Molecular Devices, Sunnyvale, CA, USA). The cytotoxicity was recorded as concentration causing 50% growth inhibition (IC50) for PC3 cells. The percent inhibition was calculated by using the following formula:
% Inhibition=100-((mean of OD of test compound-mean of OD of negative control)/(mean of OD of positive control-mean of OD of negative control)×100).
The results (% inhibition) were processed by using SoftMax Pro software (Molecular Device, USA).
Background: Formazan colour is commonly taken as a measure of viable cells.

The target in data set [1] is T1, α-Glucosidase from Saccharomyces cerevisiae (Saccharomyces cerevisiae, UniProt P53341).
T1 construct: purchased Sigma Aldrich G0660-750UN
T1 sequence (P53341 whole entry): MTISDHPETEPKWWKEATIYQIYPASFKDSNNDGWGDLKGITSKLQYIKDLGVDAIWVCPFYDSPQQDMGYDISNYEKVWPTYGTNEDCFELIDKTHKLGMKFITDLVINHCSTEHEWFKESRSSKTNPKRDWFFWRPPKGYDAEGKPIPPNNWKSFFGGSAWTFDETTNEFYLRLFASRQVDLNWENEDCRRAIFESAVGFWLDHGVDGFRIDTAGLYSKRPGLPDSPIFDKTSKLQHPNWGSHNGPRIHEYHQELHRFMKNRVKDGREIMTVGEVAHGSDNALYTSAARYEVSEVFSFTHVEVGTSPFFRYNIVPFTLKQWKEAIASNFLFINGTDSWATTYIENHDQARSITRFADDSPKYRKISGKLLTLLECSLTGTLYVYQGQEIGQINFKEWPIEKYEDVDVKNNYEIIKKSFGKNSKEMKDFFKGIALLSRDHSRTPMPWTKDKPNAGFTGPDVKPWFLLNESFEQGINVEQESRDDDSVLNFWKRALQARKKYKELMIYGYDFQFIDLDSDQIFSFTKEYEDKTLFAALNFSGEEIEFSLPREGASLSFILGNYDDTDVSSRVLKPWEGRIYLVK
In words: In vitro α-glucosidase inhibition assay. The data set is classed as biochemical. Particulars: pH 6.8, substrate p-nitrophenyl-α-D-glucopyranoside, NA = not active, failed to show 50% or more inhibition at 500 μM or more; for IC50: read-out: IC50 ± SEM, α-Glucosidase Inhibition. As for the experimental part: α-Glucosidase inhibition assay was performed spectrophotometrically. α-Glucosidase from Saccharomyces cerevisiae (G0660-750UN, Sigma Aldrich), was dissolved in phosphate buffer (pH 6.8, 50 mM). Test compounds were dissolved in 70% DMSO. In 96-well plates, 20 μL of test sample, 20 μL of enzyme and 135 μL of buffer were added and incubated for 15 min at 37 °C. After incubation, 25 μL of p-nitrophenyl-α-D-glucopyranoside (0.7 mM, Sigma Aldrich) was added and change in absorbance was monitored for 30 min at 400 nm. Test compound was replaced with DMSO (7.5% final) in control. Acarbose (Sigma Aldrich) was used as a standard inhibitor [25, 26].
(§1) All reactions were performed in triplicate in a final volume of 200 μL. The results were processed using SoftMax Pro 4.8 software (Molecular Devices, Sunnyvale, CA, USA) and then using MS Excel. The percentage of inhibition was calculated by the following formula:
(§2) % Inhibition=100-(OD of test sample/OD of the control)×100

A short description of data set [2]: DPPH radical scavenging assay (in vitro antioxidant activity). To be noted: DPPH 300 μM, 30 min at 37 °C, NA = not active, failed to show 50% or more inhibition at 500 μM or more; for IC50: read-out: IC50 ± SEM, DPPH Radical Scavenging Assay. As for the experimental part:
Test samples were allowed to react with stable free radical, 1,1-diphenyl-2-picrylhydrazyl radical (DPPH, Wako Chemicals, Shanghai, China) for half an hour at 37 °C. Various concentrations of test samples (prepared in DMSO) were incubated with DPPH (300 μM; prepared in ethanol). After incubation, decrease in absorption was measured at 515 nm by using a microplate reader (SpectraMax plus 384). Percentage radical scavenging activity (% RSA) of samples was determined in comparison with a DMSO-treated control group. Percentage of radical scavenging activity was calculated by using the formula given in statistical analysis section.
as §1, §2
In general terms: Loss of DPPH colour is used to gauge radical scavenging.

The next data set concerns the target T2, β-glucuronidase (Escherichia coli, UniProt P05804).
T2 construct: purchased Sigma Aldrich G7396-25KU
Description: In vitro β-glucuronidase inhibition assay. The data set is classed as biochemical. To be noted: substrate p-nitrophenyl-β-D-glucuronide, 37 °C; NA = not active, failed to show 50% or more inhibition at 500 μM or more; read-out: IC50 ± SEM, β-Glucuronidase Inhibition. The procedure:
Results are presented here as means ± standard error mean from triplicate (n = 3) observation. IC50 Values were determined by using EZ-FIT, enzyme kinetics software by Perrella Scientific, Inc., USA.
β-Glucuronidase inhibitory activity was determined by the spectrophotometric method by measuring the absorbance at 405 nm of p-nitrophenol formed from the substrate p-nitrophenyl-β-D-glucuronide N1627-250 mg (Sigma Aldrich Co., 3050 spruce street, St. Louis, MO, USA). The total reaction volume was 250 μL. The compound (5 μL) was dissolved in DMSO (100%), which became 2% in the ultimate assay (250 μL) and similar conditions were used for standard (D-saccharic acid 1,4-lactone, Sigma Aldrich Co.). The reaction mixture contained 185 μL of 0.1 M acetate buffer, 5 μL of test compound solution, 10 μL of (1U) enzyme solution (G7396-25KU, Sigma Aldrich) was incubated at 37 °C for 30 min. The plates were read on a multiplate reader (SpectraMax plus 384) at 405 nm after the addition of 50 μL of 0.4 mM p-nitrophenyl-β-D-glucuronide. All assays were performed in triplicate. IC50 Values were calculated by using EZ-Fit software (Perrella Scientific Inc., Amherst, MA, USA). These values are the mean of three independent readings.

T2 sequence (P05804 whole entry): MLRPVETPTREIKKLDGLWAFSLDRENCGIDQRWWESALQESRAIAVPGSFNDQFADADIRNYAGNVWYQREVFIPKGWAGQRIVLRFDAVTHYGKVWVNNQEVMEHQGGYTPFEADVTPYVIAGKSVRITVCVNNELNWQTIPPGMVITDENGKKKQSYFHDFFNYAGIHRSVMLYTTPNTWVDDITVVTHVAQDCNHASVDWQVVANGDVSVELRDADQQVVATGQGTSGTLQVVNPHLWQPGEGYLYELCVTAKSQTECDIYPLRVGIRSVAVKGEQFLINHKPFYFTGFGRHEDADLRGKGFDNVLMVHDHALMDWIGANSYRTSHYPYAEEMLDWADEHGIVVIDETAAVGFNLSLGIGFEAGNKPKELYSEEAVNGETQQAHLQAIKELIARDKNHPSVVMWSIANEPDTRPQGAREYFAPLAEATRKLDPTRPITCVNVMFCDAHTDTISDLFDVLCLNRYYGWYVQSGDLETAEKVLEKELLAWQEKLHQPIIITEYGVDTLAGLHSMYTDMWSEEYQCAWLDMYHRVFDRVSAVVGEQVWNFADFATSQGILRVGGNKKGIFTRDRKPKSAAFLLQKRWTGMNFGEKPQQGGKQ

The IC50 is the midpoint of a concentration-inhibition curve. Consider “3,3′-(3-Methyl-4-Phenylthieno[2,3-b]Thiophene-2,5-Diyl)Bis(1-Phenyl-1H-Pyrazole) [Compound 5b]”, for which the IC50 with PC-3 cell line (48 h) was > 30 µM; in data set [1], 58.4 ± 1.2 µM; in data set [2], 165 ± 2.8 µM; at β-glucuronidase, 8.7 ± 0.1 µM.

One may read the melting point as the temperature of the solid-liquid transition. `Cc1c(C(=O)C=CN(C)C)sc2sc(C(=O)C=CN(C)C)c(-c3ccccc3)c12` [Compound 3, 1,1′-(3-Methyl-4-Phenylthieno[2,3-b]Thiophene-2,5-Diyl)Bis(3-(Dimethylamino)Prop-2-En-1-One)]: the melting point amounted to 250 °C. Also, in the data set on PC-3 cell line (Homo sapiens, PC-3, 48 h), the half-maximal inhibitory concentration (IC50) is > 30 µM.

`Cc1c(-c2ccnc(O)n2)sc2sc(-c3ccnc(O)n3)c(-c3ccccc3)c12` [Compound 4a, 4,4′-(3-Methyl-4-Phenylthieno[2,3-b]Thiophene-2,5-Diyl)Dipyrimidin-2-Ol] registered a melting point of 248 °C. For the same compound, the IC50 with PC-3 cell line (Homo sapiens, PC-3, 48 h) was > 30 µM.

Turning to `Cc1c(-c2ccnc(S)n2)sc2sc(-c3ccnc(S)n3)c(-c3ccccc3)c12` [Compound 4b, 4,4′-(3-Methyl-4-Phenylthieno[2,3-b]Thiophene-2,5-Diyl)Dipyrimidin-2-Thiol], the melting point worked out at 247 °C. For the same compound, the IC50 in the data set with PC-3 cell line (Homo sapiens, PC-3, 48 h) was > 30 µM. Besides, the “IC50 ± SEM, α-Glucosidase Inhibition” value in data set [1] is “inactive”. In addition, the “IC50 ± SEM, DPPH Radical Scavenging Assay” value in data set [2] was “inactive”. The half-inhibitory concentration (IC50) on β-glucuronidase came out at 1.3 ± 0.2 µM.

The compound `Cc1c(-c2ccnc(N)n2)sc2sc(-c3ccnc(N)n3)c(-c3ccccc3)c12` [Compound 4c, 4,4′-(3-Methyl-4-Phenylthieno[2,3-b]Thiophene-2,5-Diyl)Dipyrimidin-2-Amine] yielded a melting point of 246 °C.

In turn, `Cc1c(-c2cc[nH]n2)sc2sc(-c3cc[nH]n3)c(-c3ccccc3)c12` [Compound 5a, 3,3′-(3-Methyl-4-Phenylthieno[2,3-b]Thiophene-2,5-Diyl)Bis(1H-Pyrazole)] yielded a melting point of 177 °C. For the same compound, in the data set with PC-3 cell line (Homo sapiens, PC-3, 48 h), the 50% inhibitory concentration (IC50) stood at 22.5 ± 0.1 µM. In addition, the IC50 in data set [1] was found to be 22 ± 0.3 µM. Besides, in data set [2], the “IC50 ± SEM, DPPH Radical Scavenging Assay” value is given as “no antioxidant activity”. In addition, the IC50 on β-glucuronidase is 2.3 ± 0.4 µM.

In turn, `Cc1c(-c2ccnc3ncnn23)sc2sc(-c3ccnc4ncnn34)c(-c3ccccc3)c12` [Compound 6, 7,7′-(3-Methyl-4-Phenylthieno[2,3-b]Thiophene-2,5-Diyl)Di-[1,2, 4]Triazolo[1,5-a]Pyrimidine] had a melting point of 245 °C. In the data set on PC-3 cell line (Homo sapiens, PC-3, 48 h), the half-maximal inhibitory concentration (IC50) was > 30 µM.

The compound `Cc1c(-c2ccnc3nc4ccccc4n23)sc2sc(-c3ccnc4nc5ccccc5n34)c(-c3ccccc3)c12` [Compound 7, 2,2′-(3-Methyl-4-Phenylthieno[2,3-b]Thiophene-2,5-Diyl)Bis(Benzo[4, 5]Imidazo[1,2-a] Pyrimidine)] yielded a melting point of 245 °C. The 50% inhibitory concentration (IC50) with PC-3 cell line (Homo sapiens, PC-3, 48 h) is > 30 µM.

Regarding `O=C(O)[C@@H](O)[C@H]1OC(=O)[C@H](O)[C@H]1O` [D-Saccharic acid 1,4-lactone, D-saccharic acid 1,4-lactone, reference compound], on β-glucuronidase, the IC50 turned out to be 45.8 µM.

Turning to `COc1cccc2c1C(=O)c1c(O)c3c(c(O)c1C2=O)C[C@@](O)(C(=O)CO)C[C@@H]3O[C@H]1C[C@H](N)[C@H](O)[C@H](C)O1` [Doxorubicin, reference compound], the IC50 in the data set with PC-3 cell line (Homo sapiens, PC-3, 48 h) amounted to 0.91 ± 0.1 µM.

Regarding `CC(=O)N[C@@H](CS)C(=O)O` [N-Acetylcysteine, reference compound], in data set [2], the IC50 was 106 ± 1.1 µM.
